Experimental data from ChEMBL document CHEMBL1150516, “Synthesis and biological activity of C-6 modified derivatives of the glucosidase inhibitor 1-deoxynojirimycin” (Bioorg Med Chem Lett, 1992).
Activity calls are given as the source filed them. No cut-off for these calls is given here.

Columns and labels:
[1] = Competitive Inhibition constant on jack bean mannosidase; NI=No inhibition; conditions: Canavalia ensiformis
[2] = Competitive Inhibition constant on almonds beta Glucosidase; NI=No inhibition; conditions: Prunus dulcis
Sus scrofa = organism: Sus scrofa; assay: Percentase inhibition on glucosidase I of glycoprotein trimming from pig liver at 2.5 mM concentration; NI=No inhibition; format: functional, tissue-based
[3] = pKa value was determined; format: physicochemical
[4] = Percentase inhibition on glucosidase I of glycoprotein trimming from pig liver at 1 mM concentration; format: functional; conditions: Sus scrofa

SMILES | Activity [1] | Activity [2] | inhibition (Sus scrofa) | pKa [3] | inhibition at 1000 µM [4]
CCC(O)[C@H]1NC[C@H](O)[C@@H](O)[C@@H]1O (some centres undefined) |  |  | inactive | ~6.5 | 50%
OC1CCN2C[C@H](O)[C@@H](O)[C@H](O)C12 (some centres undefined) |  |  |  | ~6.5 | 

Second part, led by results:

Activity [1] | Activity [2] | inhibition (Sus scrofa) | pKa [3] | SMILES | inhibition at 1000 µM [4]
inactive | inactive |  |  | CCO[C@@H]1CN[C@H](CO)[C@@H](O)[C@@H]1O | 
inactive | inactive |  |  | OC[C@H]1NC[C@@H](F)[C@@H](O)[C@@H]1O | 
 |  |  | ~6.5 | OC[C@H]1NC[C@H](O)[C@@H](O)[C@@H]1O [DUVOGLUSTAT] | 
